Assay results reported in patent US20080194585A1, “Fungicidal Pyrazine Derivatives” (priority 2005, published 2008).
Marks after values point to notes of the source that are not given here.

Key:
[1] = tested on: Plasmopara viticola; experiment: Test D: grape downy mildew, spray after inoculation of grape seedlings; assay type: in vivo
Text: Upon removal, disease ratings were made. […] A dash (-) indicates no test results.

[2] = tested on: Phytophthora infestans; experiment: whole plant or invertebrate; assay type: in vivo
[3] = tested on: Septoria tritici; experiment: Test J: wheat leaf blotch, preventive spray on wheat seedlings; assay type: in vivo
Text: A dash (-) indicates no test results.

[4] = tested on: fusarium graminearium; experiment: Test I: wheat head scab, preventive spray on wheat seedlings
Experimental: (the causal agent of wheat head scab) and incubated in a saturated atmosphere at 20° C. for 72 h, and then moved to a growth chamber at 22° C. for 5 days, after which disease ratings were made.

[5] = tested on: Puccinia recondita f. sp. tritici; experiment: Test K: wheat leaf rust, preventive spray on wheat seedlings
[6] = tested on: Botrytis cinerea; experiment: Test E: tomato botrytis, preventive spray on tomato seedlings
[7] = tested on: Septoria nodorum; experiment: Test H: wheat glum blotch, preventive spray on wheat seedlings
Experimental: (the causal agent of wheat glum blotch) and incubated in a saturated atmosphere at 20° C. for 48 h, and then moved to a growth chamber at 22° C. for 5 days, after which disease ratings were made.

[8] = tested on: Erysiphe graminis f. sp. tritici; experiment: Test L: wheat powdery mildew, preventive spray on wheat seedlings
[9] = tested on: Pythium aphanidermatum; experiment: Test A: bluegrass pythium blight, preventive spray on bluegrass seedlings
[10] = tested on: Rhizoctonia oryzae; experiment: Test G: turf brown patch, preventive spray on creeping bent grass seedlings
Experimental: (the causal agent of turf brown patch) and incubated in a saturated atmosphere at 27° C. for 24 h, and then moved to a growth chamber at 27° C. for 5 days, after which disease ratings were made.

[11] = tested on: Colletotrichum orbiculare; experiment: Test B: cucumber Colletotrichum anthracnose, preventive spray on cucumber seedlings
[12] = 40 ppm (marked *), 100 = 100% disease control, 0 = no control
[13] = 200 ppm, 100 = 100% disease control, 0 = no control

| SMILES | Test D disease control rating ([1]; 40 ppm (*)) | Test F disease control rating ([2]; 40 ppm (*)) | Test J disease control rating ([3]; 40 ppm (*)) | Test I disease control rating ([4]; 40 ppm (*)) | Test K disease control rating ([5]; 40 ppm (*)) | Test E disease control rating ([6]; 40 ppm (*)) | Test H disease control rating ([7]; 40 ppm (*)) | Test L disease control rating ([8]; 40 ppm (*)) | Test A disease control rating ([9]; 40 ppm (*)) | Test G disease control rating ([10]; 40 ppm (*)) | Test B disease control rating ([11]; 40 ppm (*)) | further results |
| --- | --- | --- | --- | --- | --- | --- | --- | --- | --- | --- | --- | --- |
| O=c1c(-n2cccn2)nc(Cl)c(-c2c(F)cccc2F)n1Cc1ccco1 [compound 187] | 0* % | 0* % | 77* % | 0* % | 91* % | 96* % | 0* % | 0* % | 0* % | 0* % | 0* % |  |
| O=c1c(-n2cncn2)nc(Cl)c(-c2c(F)cccc2F)n1Cc1ccco1 [compound 188] | 0* % | 0* % | 23* % | 0* % | 0* % | 56* % | 0* % | 0* % | 0* % | 0* % | 0* % |  |
| N#Cc1nc(Cl)c(-c2c(F)cccc2F)n(Cc2ccco2)c1=O [compound 189] | 0* % | 0* % | 15* % | 0* % | 0* % | 0* % | 0* % | 0* % | 0* % | 0* % | 0* % |  |
| CC(C)Cn1c(-c2c(F)cccc2F)c(Cl)nc(-c2cnc3ccccn23)c1=O [compound 190] |  |  |  |  |  |  |  |  |  |  |  | Test D disease control rating ([1]; 200 ppm): 0%; Test F disease control rating ([2]; 200 ppm): 0%; Test J disease control rating ([3]; 200 ppm): 0%; Test I disease control rating ([4]; 200 ppm): 0%; Test K disease control rating ([5]; 200 ppm): 0%; Test E disease control rating ([6]; 200 ppm): 0%; Test H disease control rating ([7]; 200 ppm): 0%; Test L disease control rating ([8]; 200 ppm): 0%; Test A disease control rating ([9]; 200 ppm): 0%; Test G disease control rating ([10]; 200 ppm): 0%; Test B disease control rating ([11]; 200 ppm): 0% |
| CCC(C)Cn1c(-c2c(F)cccc2F)c(Cl)nc(-n2nccn2)c1=O (stereo not shown) [compound 191] |  |  |  |  |  |  |  |  |  |  |  | Test D disease control rating ([1]; 200 ppm): 0%; Test F disease control rating ([2]; 200 ppm): 0%; Test J disease control rating ([3]; 200 ppm): 36%; Test I disease control rating ([4]; 200 ppm): 0%; Test K disease control rating ([5]; 200 ppm): 86%; Test E disease control rating ([6]; 200 ppm): 97%; Test H disease control rating ([7]; 200 ppm): 0%; Test L disease control rating ([8]; 200 ppm): 0%; Test A disease control rating ([9]; 200 ppm): 0%; Test G disease control rating ([10]; 200 ppm): 0%; Test B disease control rating ([11]; 200 ppm): 0% |
| CC(C)Cn1c(-c2ccccc2Cl)c(Cl)nc(-n2cncn2)c1=O [compound 192] | 0* % | 0* % | 98* % | 0* % | 89* % | 99* % | 0* % | 0* % | 0* % | 31* % | 0* % |  |
| CC(C)Cn1c(-c2ccccc2Cl)c(Cl)nc(-n2cccn2)c1=O [compound 193] | 17* % | 0* % | 99* % | 0* % | 100* % | 100* % | 89* % | 68* % | 0* % | 33* % | 29* % |  |
| CC(C)Cn1c(-c2ccccc2Br)c(Cl)nc(-n2cncn2)c1=O [compound 194] | 0* % | 0* % | 88* % | 0* % | 92* % | 95* % | 0* % | 0* % | 0* % | 0* % | 0* % |  |
| CC(C)Cn1c(-c2ccccc2Br)c(Cl)nc(-n2cccn2)c1=O [compound 195] | 0* % | 0* % | 100* % | 0* % | 100* % | 99* % | 87* % | 0* % | 0* % | 47* % | 26* % |  |
| CCc1ccccc1-c1c(Cl)nc(-n2cncn2)c(=O)n1CC(C)C [compound 196] | 0* % | 0* % | 0* % | 44* % | 0* % | 0* % | 0* % | 0* % | 0* % | 0* % | 0* % |  |
| CCc1ccccc1-c1c(Cl)nc(-n2cccn2)c(=O)n1CC(C)C [compound 197] | 0* % | 0* % | 23* % | 0* % | 0* % | 41* % | 0* % | 0* % | 0* % | 16* % | 0* % |  |
| CC[C@H](C)Cn1c(-c2ccc(F)cc2Cl)c(Cl)nc(-n2ccc(C)n2)c1=O [compound 262] |  |  |  |  |  |  |  |  |  |  |  | Test D disease control rating [1, 12]: 17* %; Test F disease control rating [2, 12]: 39* %; Test J disease control rating [3, 12]: 100* %; Test I disease control rating [4, 12]: 0* %; Test K disease control rating [5, 12]: 100* %; Test E disease control rating [6, 12]: 100* %; Test H disease control rating [7, 12]: 100* %; Test L disease control rating [8, 12]: 99* %; Test A disease control rating [9, 12]: 0* %; Test G disease control rating [10, 12]: 76* %; Test B disease control rating [11, 12]: 100* % |
| CC[C@H](C)Cn1c(-c2ccc(F)cc2Cl)c(Cl)nc(-n2cccn2)c1=O [compound 263] |  |  |  |  |  |  |  |  |  |  |  | Test D disease control rating [1, 12]: 0* %; Test F disease control rating [2, 12]: 68* %; Test J disease control rating [3, 12]: 100* %; Test I disease control rating [4, 12]: 0* %; Test K disease control rating [5, 12]: 100* %; Test E disease control rating [6, 12]: 100* %; Test H disease control rating [7, 12]: 100* %; Test L disease control rating [8, 12]: 98* %; Test A disease control rating [9, 12]: 0* %; Test G disease control rating [10, 12]: 84* %; Test B disease control rating [11, 12]: 100* % |
| CC[C@H](C)Cn1c(-c2ccc(F)cc2Cl)c(Cl)nc(N2CCC=N2)c1=O [compound 264] |  |  |  |  |  |  |  |  |  |  |  | Test D disease control rating [1, 12]: 0* %; Test F disease control rating [2, 12]: 80* %; Test J disease control rating [3, 12]: 100* %; Test I disease control rating [4, 12]: 0* %; Test K disease control rating [5, 12]: 91* %; Test E disease control rating [6, 12]: 99* %; Test H disease control rating [7, 12]: 0* %; Test L disease control rating [8, 12]: 83* %; Test A disease control rating [9, 12]: 0* %; Test G disease control rating [10, 12]: 0* %; Test B disease control rating [11, 12]: 81* % |
| CCCCn1c(-c2ccc(F)cc2Cl)c(Br)nc(N2CCC=N2)c1=O [compound 286] |  |  |  |  |  |  |  |  |  |  |  | Test D disease control rating [1, 12]: 0* %; Test F disease control rating [2, 12]: 41* %; Test J disease control rating [3, 12]: 37* %; Test I disease control rating [4, 12]: 0* %; Test K disease control rating [5, 12]: 0* %; Test E disease control rating [6, 12]: 97* %; Test H disease control rating [7, 12]: 0* %; Test L disease control rating [8, 12]: 0* %; Test A disease control rating [9, 12]: 0* %; Test G disease control rating [10, 12]: 0* %; Test B disease control rating [11, 12]: 0* % |
| O=c1c(-n2cccn2)nc(Cl)c(-c2c(F)cc(F)cc2F)n1-c1ccccc1 [compound 287] |  |  |  |  |  |  |  |  |  |  |  | Test D disease control rating [1, 12]: 47* %; Test F disease control rating [2, 12]: 46* %; Test J disease control rating [3, 12]: 100* %; Test I disease control rating [4, 12]: 97* %; Test K disease control rating [5, 12]: 99* %; Test E disease control rating [6, 12]: 100* %; Test H disease control rating [7, 12]: 99* %; Test L disease control rating [8, 12]: 99* %; Test A disease control rating [9, 12]: 56* %; Test G disease control rating [10, 12]: 93* %; Test B disease control rating [11, 12]: 99* % |
| CCC(C)Cn1c(-c2c(F)cccc2F)c(Cl)nc(C(=O)NC)c1=O (stereo not shown) [compound 297] |  |  |  |  |  |  |  |  |  |  |  | Test D disease control rating [1, 13]: 88%; Test F disease control rating [2, 13]: 92%; Test J disease control rating [3, 13]: 99%; Test I disease control rating [4, 13]: 75%; Test K disease control rating [5, 13]: 98%; Test E disease control rating [6, 13]: 99%; Test H disease control rating [7, 13]: 100%; Test L disease control rating [8, 13]: 97%; Test A disease control rating [9, 13]: 0%; Test G disease control rating [10, 13]: 78%; Test B disease control rating [11, 13]: 73% |
